Test results: US20210038585A1 (Tesaro, Inc., priority 2017, published 2021)
Several values for one entry are separate records, joined by “and”; a condition that tells them apart may be missing. Equal entries are not always repeated. Where two headings read alike, the source gives them in different places.

Experiments:
[1] = drug substance
Procedure: These batches were divided into sub-lots at various time intervals and each sub-lot was analyzed for content uniformity.

[2] = crystalline solid drug substance
[3] = tested on: intracellular PARP activity
in vivo = conditions: 50 mg/kg
[4] = tested on: intracellular PARP activity; conditions: read-out: inhibited PARP activity in a whole cell assay, EC50; cited from earlier work
[5] = tested on: cancer cells with mutant BRCA-1 and BRCA-2; conditions: read-out: inhibited proliferation, CC50; cited from earlier work
[6] = shear cell tests using a FT-4 powder rheometer; assay type: physicochemical; conditions: niraparib drug substance; for BD (bulk density): shear cell test
Procedure: As used herein, “flow function” or FF is a parameter commonly used to rank powder's flowability and is determined using a shear test. The data produced in the shear test represents the relationship between shear stress and normal stress, which can be plotted to define the powder's Yield Locus. Fitting Mohr stress circles to the yield locus identifies the Major Principle Stress (MPS) and Unconfined Yield Strength (UYS). Flow function is the ratio of Major Principle Stress (MPS) to the Unconfined Yield Strength (UYS):
Shear testing can be used measure powder shear properties which involves the stress limit required to initiate a powder flow. The shear testing uses a segmented rotational shear cell head and a 10 ml powder sample in the borosilicate test vessel. Powder is filled into the vessel. The shear cell head is simultaneously rotated and moved axially under the powder sample at pre-determined normal stresses as the shear stresses are measured to calculate several parameters, including the flow function (FF). Usually, powders of low cohesion have higher FF and that represents better flow properties. The permeability test can measure the ease of air transmission through a bulk powder which can be related to the powder's flowability. For example, a permeability testing can use a vented piston with an aeration base and 10 mL powder sample in the borosilicated test vessel.
Samples of powder compositions were prepared to evaluate the powder compositions disclosed herein. The following tests/measurements were made using a FT-4 powder rheometer from Freeman technology.
The cohesion (kPa), Unconfined Yield Strength (UYS) (kPa), Maj or Principle Stress (MPS) (kPa), flow function (FF) (MPS/UYS), Angle of internal friction (AIF), and bulk density (BD) (g/cm^3) were determined by carrying out shear cell tests using a FT-4 powder rheometer and the results can be seen in the tables below: […]

[7] = wall friction test, FT-4 powder rheometer, stainless steel discs; assay type: physicochemical; conditions: niraparib batches, Ra 0.05; for BD (bulk density): wall friction test
Source text: A Wall Friction test can be used to provide a measurement of the sliding resistance between a powder and the surface of process equipment, such as an encapsulator or blender or hopper. This can be important for understanding discharge behavior from hoppers, continuity of flow in transfer chutes and tablet ejection forces. It is also useful when investigating whether a powder will adhere to the wall of process equipment and various other surfaces, such as the inside of sachets, capsules and other packaging material. The measurement principle is very similar to the shear cell test, but rather than shearing powder against powder, in this test a coupon of material representing the process equipment wall is sheared against the powder in question. The FT4 Wall Friction accessory allows for a range of coupons to be investigated, and bespoke surfaces can be manufactured if required. Data is typically represented as a plot of shear stress against normal stress, allowing the determination of Wall Friction Angle (phi). The greater the wall friction angle, the higher the resistance between the powder and wall coupon.
The measurement principle is very similar to the shear cell test, but rather than shearing powder against powder, in this test a coupon of material representing the process equipment wall is sheared against the powder in question. The FT4 Wall Friction accessory allows for a range of coupons to be investigated. Wall Friction is typically represented as a plot of shear stress against normal stress, allowing the determination of Wall Friction Angle (phi). The greater the wall friction angle, the higher the resistance between the powder and wall coupon.
A wall friction test method was developed to assess the interaction between the drug substance and stainless steel. […]
The head continues to move downwards until the required normal stress is established. […] The torque required to maintain this rotational is measured which enables a “steady-state” shear stress to be calculated. […] A series of shear stress values is measured for a range of target applied stresses. […]

Structure (SMILES) | AIF (Angle of internal friction) [6] | Cohesion [6] | FF, flow function (MPS/UYS) [6] | MPS (Major Principle Stress) [6] | UYS (Unconfined Yield Strength) [6] | BD (bulk density) [6] | BD (bulk density) [7] | further results
Cc1ccc(S(=O)(=O)O)cc1.NC(=O)c1cccc2cn(-c3ccc([C@@H]4CCCNC4)cc3)nc12 [Niraparib tosylate monohydrate, 2-{4-[(3S)-piperidin-3-yl]phenyl}-2H-indazole 7-carboxamide 4-methylbenzenesulfonate hydrate (1:1:1)] |  |  |  |  |  |  |  | bulk density [1]: 0.34-0.45 g/cc; tapped density [1]: 0.53-0.66 g/cc; hygroscopicity [2]: non-hygroscopic
NC(=O)c1cccc2cn(-c3ccc([C@@H]4CCCNC4)cc3)nc12 [Niraparib, 2-{4-[(3S)-piperidin-3-yl]phenyl}-2H-indazole-7-carboxamide] |  |  |  |  |  |  |  | intracellular PARP activity IC90 ([3]; mass concentration equivalent): 0.016 µg/mL; IC50 ([3]; read-out: intracellular PARP activity IC50): 4 nM; IC90 ([3]; read-out: intracellular PARP activity IC90): 50 nM; tumor regression (tumor models; 50 mg/kg, daily dosing): tumor regression; tumor regression (tumor models; dosing switched from 75 mg/kg olaparib to 50 mg/kg niraparib): tumor regression was achieved; concentration at 6 h (in vivo): ~4570 ng/mL; EC50 [4]: 4 nM; CC50 [5]: 10 to 100 nM
Cc1ccc(S(=O)(=O)O)cc1.NC(=O)c1cccc2cn(-c3ccc(C4CCCNC4)cc3)nc12.O (stereo not drawn) [Non Milled, Annealed A] | 36.54 ° and 35.80 ° | 1.10 kPa and 1.02 kPa | 4.27 and 4.66 | 18.64 kPa and 18.50 kPa | 4.36 kPa and 3.97 kPa | 0.38 g/mL and 0.37 g/mL | 0.37 g/mL and 0.38 g/mL and 0.39 g/mL | 
Cc1ccc(S(=O)(=O)O)cc1.NC(=O)c1cccc2cn(-c3ccc(C4CCCNC4)cc3)nc12.O (stereo not drawn) [Non Milled, Annealed D] | 30.49 ° and 31.30 ° | 1.14 kPa and 1.06 kPa | 4.12 and 4.32 | 16.44 kPa and 16.24 kPa | 3.99 kPa and 3.76 kPa | 0.44 g/mL and 0.46 g/mL | 0.44 g/mL and 0.46 g/mL and 0.45 g/mL | WFA (Wall friction angle) [7]: 27.29 ° and 31.10 ° and 30.98 °
O=C(c1cc(Cc2n[nH]c(=O)c3ccccc23)ccc1F)N1CCN(C(=O)C2CC2)CC1 [olaparib] |  |  |  |  |  |  |  | tumor regression (tumor models; same model, dose of 75 mg/kg): did not result in tumor regression
